Data: PubChem BioAssay (NCI)
“And” between values parts separate entries of the source, which are not always exact repeats. Equal values may be shown once.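 Test compounds were applied to cells in 96-well plates for 48 hours at 5 doses. Here, GI50 denotes the concentration required for 50% inhibition of growth. Definition used: TGI = concentration required for complete inhibition of growth.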 *1 amine or outer side, *2 acyl side, *3 side chain or, on linkers, in order; H or OH if unused. Where a SMILES comes first, the peptide text is derived from it. Bridges are numbered along the chain shown (N, C = ends). Roman numbers before positions name the chains, in order. [ ]: non-standard residue; d: D form. Actinocin(9to1) = Cc1c2oc3c(C)ccc(C(=O)[*:1])c3nc-2c(C(=O)[*:2])c(N)c1=O; Hyp = O=C(O)[CH]1C[CH](O)CN1; NMeV = CN[CH](C(=O)O)C(C)C; Sar = CNCC(=O)O

Columns and labels:
Assay in all cases: NCI tumour cell line growth inhibition, 48 h
NCI-H226 lung = tested on: NCI-H226 lung
HOP-62 NSCLC = tested on: HOP-62 NSCLC
HCC-2998 colon = tested on: HCC-2998 colon
BT-549 breast = tested on: BT-549 breast
NCI-H460 lung = tested on: NCI-H460 lung
NCI/ADR-RES ovarian = tested on: NCI/ADR-RES ovarian
IGROV1 ovarian = tested on: IGROV1 ovarian
LOX IMVI melanoma = tested on: LOX IMVI melanoma
SN12C renal = tested on: SN12C renal
RPMI-8226 leukemia = tested on: RPMI-8226 leukemia

SMILES	TGI (NCI-H226 lung)	TGI (HOP-62 NSCLC) [µM]	TGI (HCC-2998 colon) [µM]	TGI (BT-549 breast) [µM]	TGI (NCI-H460 lung) [µM]	TGI (NCI/ADR-RES ovarian) [µM]	TGI (IGROV1 ovarian)	TGI (LOX IMVI melanoma)	TGI (SN12C renal) [µM]	TGI (RPMI-8226 leukemia) [µM]	GI50 (NCI-H226 lung) [µM]	GI50 (LOX IMVI melanoma)	GI50 (HOP-62 NSCLC) [µM]	GI50 (HCC-2998 colon) [µM]	GI50 (NCI-H460 lung) [µM]
COC(=O)CNC(=O)CCC(C)[C@H]1CCC2C3C(C[C@H](OC(C)=O)[C@@]21C)[C@@]1(C)CCC2(C[C@H]1C[C@H]3OC(C)=O)OOC1(CC[C@]3(C)C4C[C@H](OC(C)=O)[C@@]5(C)C(CC[C@@H]5C(C)CCC(=O)NCC(=O)OC)C4[C@H](OC(C)=O)C[C@@H]3C1)OO2 (some centres undefined)	3.46 µM	1.52	1.86	> 50	26.4	> 50	1.91 µM								
O=C(O)/C(=C\c1ccc(O)cc1)c1cccc2ccccc12	> 100 µM	> 100	> 100	> 100	> 100	> 100	> 100 µM	> 100 µM	> 100						
COC(=O)CCNc1c2ccccc2nc2cccc([N+](=O)[O-])c12	0.0333 µM and 0.0378 µM	0.00667	2.33		0.234	0.068	0.0261 µM and 0.0901 µM	0.0172 µM and 0.053 µM	0.0168	0.0236	0.00347	0.00367 µM and 0.0126 µM	0.0015	1.04	0.0138
COC1=CC(=O)C=C(OC)C1=O	30.8 µM	54.3	56.2		57.1	10.1	31.3 µM	13.1 µM	35.1	20.5					
NC(=O)CC(N)C(=O)NC(Cc1ccccc1)C(=O)NC(Cc1ccccc1)NC(=O)C(Cc1c[nH]c2ccccc12)C(=O)O (centres undefined)	> 100 µM	> 100	> 100		> 100	> 100	> 100 µM	> 100 µM	> 100	> 100					
COC(=O)C(Cc1ccc(N(C)C)cc1)(NC(=O)c1ccccc1)P(=O)(OC)OC (centres undefined)	> 100 µM	> 100	> 100		> 100		> 100 µM	> 100 µM	> 100	> 100					
Nn1c(=O)[nH]c2ncn(Cc3ccccc3)c2c1=O	> 100 µM	> 100	> 100	> 100	> 100	> 100	> 100 µM		> 100						
COc1c(Br)cc2ccccc2c1-c1c(OC)c(Br)cc2ccccc12	> 100 µM	> 100	> 100		> 100	> 100	> 100 µM	> 100 µM		> 100					
Cc1cc(Nc2ccc(NS(C)(=O)=O)cc2)c2c(ccc3nccc32)[nH]1	41.9 µM	44.5		43.9	46.5	> 100	86.3 µM	48.4 µM	38.9	40.7					
CCCCSC1=N/C(=C\c2ccc(N(C)C)cc2)C(=O)N1	54.2 µM	> 100		> 100	51.6	> 100	> 100 µM	> 100 µM	33.5	50.2					
c1ccc(Nc2nn3c(CCCCCCCCc4nnc5sc(Nc6ccccc6)nn45)nnc3s2)cc1	> 100 µM	> 100	> 100	> 100	> 100	> 100		> 100 µM	> 100	> 100					
CN(O)C(=O)CCCC(=O)NCC(C)(C)CNC(=O)CCCC(=O)N(C)O	> 100 µM	> 100	> 100		> 100	> 100	> 100 µM	> 100 µM		> 100					
CC(=O)O[C@H]1C(=O)[C@@]2(C)[C@H]([C@H](OC(=O)c3ccccc3)[C@]3(O)C[C@H](OC(=O)[C@H](O)[C@@H](NC(=O)c4ccccc4)c4cccc(N(C)C)c4)C(C)=C1C3(C)C)[C@]1(OC(C)=O)CO[C@@H]1C[C@@H]2O	29 µM	> 18.3		3.51	27.5	> 62.5	> 75 µM	> 75 µM	> 75	0.236					
O=C(OC1CN2CCC1CC2)N(c1ccccc1)c1ccccc1 (centres undefined)	> 100 µM	> 100		> 100		> 100	> 100 µM	> 100 µM	> 100	> 100					
N#Cc1cc(Sc2ccc(N)c(C#N)c2)ccc1N	81 µM	> 100		> 100	31.1	35.3	> 100 µM	51.7 µM	> 100	59.2					
O[C@@H]1CCC[C@@H]2NC[C@@H](c3ccc4c(c3)OCO4)[C@H]12	> 100 µM	> 100	> 100		> 100	> 100	> 100 µM	> 100 µM		> 100					
O=c1[nH]nc(Nc2ccccc2)c2nnn(C3CCCCC3)c12		> 100	> 100	> 100	> 100	> 100		> 100 µM	> 100	> 100					
CNC(=O)SCC(NC(=O)CCC(N)C(=O)O)C(=O)NCC(=O)O (centres undefined)	> 100 µM	> 100	> 100		> 100	> 100	> 100 µM	> 100 µM	> 100	> 100					
C=CCOC(OCC=C)/C(Br)=C/C	> 100 µM	> 100	> 100		> 100	89.2		39.5 µM	> 100	> 100					
CCC(CC)(CO)CNc1cc(Cl)nc(N)n1	> 100 µM	> 100		> 100	> 100	> 100	> 100 µM	> 100 µM	> 100	> 100					
Cc1c2oc3c(C)ccc(C(=O)NC4C(=O)NC(C(C)C)C(=O)N5CC(O)CC5C(=O)N(C)CC(=O)N(C)C(C(C)C)C(=O)OC4C)c3nc-2c(C(=O)NC2C(=O)NC(C(C)C)C(=O)N3CC(O)CC3C(=O)N(C)CC(=O)N(C)C(C(C)C)C(=O)OC2C)c(N)c1=O (centres undefined) (I: TV[Hyp][Sar][NMeV] / II: TV[Hyp][Sar][NMeV]; ester I:1-I:C, II:1-II:C; linker I:N-II:N via Actinocin(9to1); configuration not given here)	> 1 µM	> 1	> 1		> 1	> 1	> 1 µM	> 1 µM	> 1	> 1					
